Reference: patent publication US7816371B2, “Bicycloheteroaryl compounds as P2X7 modulators and uses thereof” (Renovis, Inc., priority 2006, dated 2010)

Target: T1, P2X7 receptor (Homo sapiens, UniProt Q99572)
T1 construct: host or cells: THP-1 cells differentiated with LPS and IFN-γ
T1 sequence (Q99572 1-595): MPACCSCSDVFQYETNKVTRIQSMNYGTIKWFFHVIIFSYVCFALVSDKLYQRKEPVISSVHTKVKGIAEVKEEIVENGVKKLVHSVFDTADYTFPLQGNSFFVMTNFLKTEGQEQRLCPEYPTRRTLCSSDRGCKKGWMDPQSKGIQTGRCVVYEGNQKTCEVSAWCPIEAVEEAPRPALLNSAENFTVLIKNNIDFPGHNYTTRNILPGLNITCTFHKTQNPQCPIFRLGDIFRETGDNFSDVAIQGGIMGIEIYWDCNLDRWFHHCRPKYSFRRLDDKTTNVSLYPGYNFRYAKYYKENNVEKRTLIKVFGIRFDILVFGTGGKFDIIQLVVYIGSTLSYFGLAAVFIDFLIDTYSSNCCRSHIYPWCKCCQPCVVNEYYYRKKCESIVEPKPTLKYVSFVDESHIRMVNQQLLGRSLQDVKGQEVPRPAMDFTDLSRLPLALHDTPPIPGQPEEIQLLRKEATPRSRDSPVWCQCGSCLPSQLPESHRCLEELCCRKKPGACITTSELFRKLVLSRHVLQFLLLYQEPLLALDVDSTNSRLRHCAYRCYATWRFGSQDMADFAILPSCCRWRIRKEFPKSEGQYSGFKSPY
Assay: IL-1β release assay in differentiated THP-1 cells stimulated with BzATP (Example 9); % inhibition and IC50
Format: cell-based
Conditions: THP-1 cells differentiated with LPS and IFN-γ, 30 min pretreatment, BzATP 250 uM, IL-1β by ELISA
Method: The cells are then pretreated for 30 minutes with the compound of interest at the appropriate concentration in RPMI media containing 100 IU/mL penicillin, 100 ug/mL streptomycin. […] 30 uL of cell supernatant is then collected and IL-1β levels determined via ELISA (R&D systems Cat. # HSLB50) according to manufacturer's recommendations using the Tecan Safire plate reader. Background adjusted IL-1β levels of drug treated and non-treated cells are used to calculate the percent inhibition.
The compounds set forth in Table 1 were tested for activity in a cellular model as described herein.

SMILES	IC50
NCC(CCl)Cn1ccc2c(NC(=O)Cc3ccc(Cl)c(Cl)c3)cccc2c1=O (centres unmarked) [Compound 259]	208 nM
C[C@H](C(N)=O)n1ccc2c(NC(=O)Cc3ccccc3Cl)cccc2c1=O [Compound 260]	694 nM
CNC(=O)[C@@H](CO)n1ccc2c(NC(=O)C(C)c3ccc(Cl)cc3)cccc2c1=O (some centres unmarked) [Compound 261]	188 nM
C[C@H](C(N)=O)n1ccc2c(NC(=O)[C@H](C)c3ccc(Cl)cc3)cccc2c1=O [Compound 262]	73.1 nM
C[C@H](C(=O)Nc1cccc2c(=O)n([C@H](C)C(N)=O)ccc12)c1ccc(Cl)cc1 [Compound 263]	13.3 nM
C[C@H](C(=O)Nc1cccc2c(=O)n([C@@H](C)C(N)=O)ccc12)c1ccc(Cl)cc1 [Compound 265]	15.2 nM
C[C@@H](C(=O)Nc1cccc2c(=O)n([C@@H](C)C(N)=O)ccc12)c1ccc(Cl)cc1 [Compound 266]	38.7 nM
CC(C(=O)Nc1cccc2c(=O)n([C@H](C)C(N)=O)ccc12)c1ccc(Cl)c(C(F)(F)F)c1 (stereo partly drawn) [Compound 267, (R)-2-{5-[2-(4-Chloro-3-trifluoromethyl-phenyl)-propionylamino]-1-oxo-1H-isoquinolin-2-yl}-propionamide]	3.19 nM
C[C@H](C(=O)Nc1cccc2c(=O)n([C@H](C)C(N)=O)ccc12)c1ccc(Cl)c(Cl)c1 [Compound 268]	3.92 nM
C[C@H](C(N)=O)n1ccc2c(NC(=O)[C@H](C)c3ccc(Cl)c(Cl)c3)cccc2c1=O [Compound 269]	8.97 nM
CNC(=O)[C@@H](CO)n1ccc2c(NC(=O)C(C)c3ccc(Cl)c(Cl)c3)cccc2c1=O (stereo partly drawn) [Compound 270, (R)-2-{5-[2-(3,4-Dichloro-phenyl)-propionylamino]-1-oxo-1H-isoquinolin-2-yl}-3-hydroxy-N-methyl-propionamide]	37.4 nM
CC(C)C[C@H](CO)n1ccc2c(NC(=O)[C@@H](C)c3ccc(Cl)cc3)cccc2c1=O [Compound 271]	60.6 nM
C[C@H](C(N)=O)n1ccc2c(NC(=O)c3cccc4ncccc34)cccc2c1=O [Compound 272]	> 1000 nM
CC(C)[C@H](CO)n1ccc2c(NC(=O)[C@H](C)c3ccc(Cl)cc3)cccc2c1=O [Compound 273, (R)-2-(4-Chloro-phenyl)-N-[(R)-2-(1-hydroxymethyl-2-methyl-propyl)-1-oxo-1,2-dihydro-isoquinolin-5-yl]-propionamide]	3.54 nM
CC(C)C[C@H](CO)n1ccc2c(NC(=O)Cc3ccc(Cl)c(Cl)c3)cccc2c1=O [Compound 275]	19.8 nM
CNC(=O)[C@@H](C(C)C)n1ccc2c(NC(=O)[C@@H](C)c3ccc(Cl)cc3)cccc2c1=O [Compound 276, (R)-2-{5-[(S)-2-(4-Chloro-phenyl)-propionylamino]-1-oxo-1H-isoquinolin-2-yl}-3,N-dimethyl-butyramide]	53.3 nM
CNC(=O)[C@@H](C(C)C)n1ccc2c(NC(=O)[C@H](C)c3ccc(Cl)cc3)cccc2c1=O [Compound 277]	82 nM
C[C@H](C(=O)Nc1cccc2c(=O)n([C@@H](C(N)=O)c3ccccc3)ccc12)c1ccc(Cl)c(Cl)c1 [Compound 278, (S)—N-[2-((R)-Carbamoyl-phenyl-methyl)-1-oxo-1,2-dihydro-isoquinolin-5-yl]-2-(3,4-dichloro-phenyl)-propionamide]	58 nM
C[C@H](C(=O)Nc1cccc2c(=O)n([C@@H](C(N)=O)c3ccccc3)ccc12)c1ccc(Cl)cc1 [Compound 279, (S)—N-[2-((R)-Carbamoyl-phenyl-methyl)-1-oxo-1,2-dihydro-isoquinolin-5-yl]-2-(4-chloro-phenyl)-propionamide]	106 nM
CC(C)C[C@H](CO)n1ccc2c(NC(=O)Cc3ccc(Cl)c(C(F)(F)F)c3)cccc2c1=O [Compound 280]	121 nM
CC(C)[C@H](C(=O)NC1CC1)n1ccc2c(NC(=O)[C@@H](C)c3ccc(Cl)cc3)cccc2c1=O [Compound 281, (R)-2-{5-[(S)-2-(4-Chloro-phenyl)-propionylamino]-1-oxo-1H-isoquinolin-2-yl}-N-cyclopropyl-3-methyl-butyramide]	7.39 nM
CC(C)[C@H](C(=O)NC1CC1)n1ccc2c(NC(=O)[C@H](C)c3ccc(Cl)cc3)cccc2c1=O [Compound 282]	33.8 nM
CC(C)[C@H](C(N)=O)n1ccc2c(NC(=O)[C@@H](C)c3ccc(Cl)cc3)cccc2c1=O [Compound 283]	9.7 nM
CC(C)[C@H](C(N)=O)n1ccc2c(NC(=O)[C@H](C)c3ccc(Cl)cc3)cccc2c1=O [Compound 284, (R)-2-{5-[(R)-2-(4-Chloro-phenyl)-propionylamino]-1-oxo-1H-isoquinolin-2-yl}-3-methyl-butyramide]	6.91 nM
C[C@H](C(N)=O)n1ccc2c(NC(=O)Cc3cccc(C(F)(F)F)c3F)cccc2c1=O [Compound 285]	6.62 nM
C[C@H](C(N)=O)n1ccc2c(NC(=O)Cc3c(F)cccc3C(F)(F)F)cccc2c1=O [Compound 286]	374 nM
C[C@H](C(N)=O)n1ccc2c(NC(=O)Cc3ccc(C#N)cc3)cccc2c1=O [Compound 287]	332 nM

SMILES	IC50
C[C@H](C(N)=O)n1ccc2c(NC(=O)Cc3cccc(C#N)c3)cccc2c1=O [Compound 288]	> 1000 nM
C[C@H](C(N)=O)n1ccc2c(NC(=O)Cc3ccc(-c4ccccc4)cc3)cccc2c1=O [Compound 289]	53 nM
C[C@H](C(N)=O)n1ccc2c(NC(=O)Cc3ccc(Cl)cc3F)cccc2c1=O [Compound 290]	7.63 nM
C[C@H](C(N)=O)n1ccc2c(NC(=O)Cc3ccc(F)cc3Cl)cccc2c1=O [Compound 291]	20.6 nM
C[C@H](C(N)=O)n1ccc2c(NC(=O)Cc3c(F)cccc3F)cccc2c1=O [Compound 292]	> 1000 nM
C[C@H](C(N)=O)n1ccc2c(NC(=O)Cc3ccc(F)cc3F)cccc2c1=O [Compound 293]	44.4 nM
C[C@H](C(N)=O)n1ccc2c(NC(=O)Cc3ccccc3F)cccc2c1=O [Compound 294]	663 nM
C[C@H](C(N)=O)n1ccc2c(NC(=O)Cc3ccc(F)cc3C(F)(F)F)cccc2c1=O [Compound 295]	184 nM
C[C@H](C(N)=O)n1ccc2c(NC(=O)Cc3ccc(C(F)(F)F)cc3F)cccc2c1=O [Compound 296]	17.9 nM
C[C@H](C(N)=O)n1ccc2c(NC(=O)Cc3cccc(C(F)(F)F)c3)cccc2c1=O [Compound 297]	16.6 nM
C[C@H](C(N)=O)n1ccc2c(NC(=O)Cc3ccc(C(F)(F)F)cc3)cccc2c1=O [Compound 298]	7.91 nM
CC(C(=O)Nc1cccc2c(=O)n([C@H](C)C(N)=O)ccc12)c1ccc(F)cc1 (some centres unmarked) [Compound 299]	24.8 nM
C[C@H](C(N)=O)n1ccc2c(NC(=O)Cc3ccc(Cl)c(F)c3)cccc2c1=O [Compound 300]	5.96 nM
C[C@H](C(N)=O)n1ccc2c(NC(=O)Cc3ccc(F)c(Cl)c3)cccc2c1=O [Compound 301]	3.57 nM
Cc1ccc(CC(=O)Nc2cccc3c(=O)n([C@H](C)C(N)=O)ccc23)cc1F [Compound 302]	32.2 nM
C[C@H](C(N)=O)n1ccc2c(NC(=O)Cc3ccc(F)c(F)c3)cccc2c1=O [Compound 303]	15.5 nM
C[C@H](C(N)=O)n1ccc2c(NC(=O)Cc3ccc(F)c(C(F)(F)F)c3)cccc2c1=O [Compound 304]	5.84 nM
C[C@H](C(N)=O)n1ccc2c(NC(=O)Cc3cc(F)c(F)cc3F)cccc2c1=O [Compound 305]	36.3 nM
C[C@H](C(N)=O)n1ccc2c(NC(=O)Cc3ccc(C(F)(F)F)c(F)c3)cccc2c1=O [Compound 306]	5.07 nM
C[C@H](C(N)=O)n1ccc2c(NC(=O)Cc3ccc(F)c(Br)c3)cccc2c1=O [Compound 307]	18.5 nM
C[C@H](C(=O)Nc1cccc2c(=O)n([C@H](C)C(=O)NC3CC3)ccc12)c1ccc(Cl)cc1 [Compound 308, (R)-2-{5-[(S)-2-(4-Chloro-phenyl)-propionylamino]-1-oxo-1H-isoquinolin-2-yl}-N-cyclopropyl-propionamide]	302 nM
C[C@H](C(N)=O)n1ccc2c(NC(=O)Cc3ccccn3)cccc2c1=O [Compound 309]	> 1000 nM
C[C@@H](C(N)=O)n1ccc2c(NC(=O)Cc3ccc(Cl)nc3)cccc2c1=O [Compound 310]	> 1000 nM
C[C@H](C(N)=O)n1ccc2c(NC(=O)Cc3ccc(Cl)nc3)cccc2c1=O [Compound 312]	> 1000 nM
C[C@H](C(N)=O)n1ccc2c(NC(=O)Cc3cccc(OC(F)(F)F)c3)cccc2c1=O [Compound 313]	713 nM
C[C@H](C(=O)Nc1cccc2c(=O)n(C(C(N)=O)c3ccc(Cl)cc3)ccc12)c1ccc(Cl)cc1 (stereo partly drawn) [Compound 315, (S)—N-{2-[Carbamoyl-(4-chloro-phenyl)-methyl]-1-oxo-1,2-dihydro-isoquinolin-5-yl}-2-(4-chloro-phenyl)-propionamide]	221 nM
